Measurements published in patent US10905660B2, “Microparticles” (NovaBiotics Limited, priority 2016, dated 2021).

Columns and labels:
Format in all cases: in vivo
[1] = system: Pseudomonas aeruginosa ATCC 27853; experiment: Mouse IN neutropenic lung burden model, Lynovex/lactose study; details: 24 h post-infection
Procedure: (§1) Assessment of Efficacy of Lynovex (Cysteamine) Prep in a Mouse IN Neutropenic model of Pseudomonas aeruginosa ATCC 27853 (Lung Burden Model)
(§2) Animals were immunosuppressed/pre-conditioned with either 200 mg/kg or 150 mg/kg cyclophosphamide. Lynovex, chemical name cysteamine, and vehicle were either prepared either as Lynovex and lactose vehicle, or Lynovex and mannitol-based vehicle (both provided by Upperton (Upperton product)). These were prepared for treatment and vehicle-control alone respectively, and in combination. Tobramycin was prepared as an inhalation formulation in lactose. All treatments were administered using a Penn Century device. Phosphate buffered saline (PBS) and Pseudomonas selective agar were required for bacterial tissue burden.
(§3) Male CD1 mice (n=6 for treatment groups, plus five in pre-treatment group, totalling 35 mice) were used in this study. On day −4, the mice were immunosuppressed/pre-conditioned with 200 mg/kg cyclophosphamide intraperitoneally; and with 150 mg/kg cyclophosphamide intraperitoneally on day −1. An infection was established with P. aeruginosa ATCC27853, with an inoculum of 5×10^6 cfu/ml, administered intranasally in a volume of 40 μl following anaesthetisation with a ketamine/xylazine anaesthetic cocktail for 15 minutes, for the Lynovex prepared in lactose study, and an inoculum of 4×10^6 for the Upperton Lynovex product.
All treatments were administered intratracheally using a Penn Century device.
Lynovex (cysteamine) was administered at 1.5 mg alone, and in combination with lactose at the following concentrations: Lynovex 0.75 mg+2.25 mg lactose powder, Lynovex 1.5 mg+1.5 mg lactose powder, Lynovex 2.25 mg+0.75 mg, along with a vehicle only control of 3 mg lactose. In addition, Tobramycin at 188 μg/dose was administered, as an inhaled formulation which was mixed with lactose to aid measurement. The treatments were administered approximately 5 minutes after infection.
(§4) The lung tissue burden of each animal, at the clinical end point of 24 h post-infection, was determined. The lungs were homogenised in 2 ml PBS, serially diluted in PBS and plated onto Pseudomonas selective agar before quantification after 24-48 h at 37° C.

[2] = system: Pseudomonas aeruginosa ATCC 27853; experiment: Mouse IN neutropenic lung burden model, Lynovex Upperton product (mannitol-based) study; details: 0.188 mg inhalation formulation, intratracheal, 24 h post-infection; highly variable burdens
Procedure: as §1, §2
Male CD1 mice (n=6 for treatment groups, plus five in pre-treatment group, totalling 35 mice) were used in this study. On day −4, the mice were immunosuppressed/pre-conditioned with 200 mg/kg cyclophosphamide intraperitoneally; and with 150 mg/kg cyclophosphamide intraperitoneally on day −1. […]
as §4

[3] = Mouse weights before and after infection; details: P. aeruginosa infected neutropenic CD1 mice, Upperton product study (FIG. 6)
Procedure: as §3
In a different study, Lynovex was administered at the following doses: 3 mg 5% Lynovex and 3 mg 10% Lynovex. Lynovex in combination with Tobramycin as follows: 3 mg 5% Lynovex+Tobramycin 0.188 mg in 1.5 mg vehicle, 3 mg 10% Lynovex+Tobramycin 0.188 mg in 1.5 mg Vehicle (mannitol-based, provided by Upperton) and a Tobramycin only control (0.188 mg/dose in lactose vehicle). The treatments were administered once approximately 10 minutes after infection.
Additionally, mouse weights were recorded before and after infection. Mice treated with vehicle, Lynovex monotherapy or Tobramycin monotherapy lost weight following infection. […]

SMILES | mice clearing the infection to below the detection limit ([1]; 1.5 mg intratracheal) | lung burden compared to vehicle ([1]; 1.5 mg intratracheal, P=0.0072) | mice clearing the infection to below the detection limit ([1]; 2.25 mg intratracheal) | lung burden compared to vehicle ([1]; 2.25 mg intratracheal, P=0.0349) | animals that cleared the infection to below the limit of detection ([1]; 0.188 mg inhalation formulation, intratracheal) | lung burden compared with vehicle-treated mice ([1]; 0.188 mg inhalation formulation, intratracheal, CD1 mice, P=0.0097 Kruskal Wallis test) | average reduction in lung burden compared with vehicle-treated mice [2] [log10 cfu/g] | mouse weight following infection [3]
NCCS [Lynovex, cysteamine] | 5/6 | reduced the lung burden | 4/6 | reduced the lung burden |  |  |  | 
NC[C@H]1O[C@H](O[C@H]2[C@H](O)[C@@H](O[C@H]3O[C@H](CO)[C@@H](O)[C@H](N)[C@H]3O)[C@H](N)C[C@@H]2N)[C@H](N)C[C@@H]1O [Tobramycin] |  |  |  |  | 5/6 | statistically significant reduction in lung burden | 1.61 | lost weight
